Experiments:
Plasmodium falciparum [1] = assay: Antiplasmodial activity against Plasmodium falciparum K1; format: functional, organism-based
HEK293 [2] = assay: Cytotoxicity against HEK293 cells incubated for 72 hrs by resazurin dye based assay; format: cell-based; details: Homo sapiens, HEK293, 72 h
Plasmodium falciparum [3] = assay: Antiplasmodial activity against chloroquine-sensitive Plasmodium falciparum 3D7 incubated for 72 hrs by DAPI-staining based imaging analysis; format: functional, organism-based; details: 3D7, 72 h
HEK293 [4] = assay: Cytotoxicity against HEK293 cells at 40 uM incubated for 72 hrs by resazurin dye based assay relative to control; format: cell-based; details: human, hek293, 72 h
[5] = Stability of compound; format: physicochemical

IC50 (Plasmodium falciparum [1]) | IC50 (Plasmodium falciparum [3]) | Structure (SMILES) | IC50 (HEK293 [2]) | other results
1 to 18 µM | – | OCCNc1nccc2c1[nH]c1ccccc12 | – | –
– | – | CN(C)CCc1nccc2c1[nH]c1ccccc12 | – | Stability [5]: Unstable
1 to 18 µM | – | CN(C)CCCNc1nccc2c1[nH]c1ccccc12 | – | –
1 to 18 µM | – | CCN(CC)C1CCN(c2nccc3c2[nH]c2ccccc23)CC1 | – | –
1 to 18 µM | – | CCN(CC)CCCNc1nccc2c1[nH]c1ccccc12 | – | –
1 to 18 µM | – | c1ccc2c(c1)[nH]c1c(N3CCOCC3)nccc12 | – | –
1 to 18 µM | – | c1ccc2c(c1)[nH]c1c(N3CCC(N4CCCCCC4)CC3)nccc12 | – | –
– | > 40 µM | c1ccc2c(c1)[nH]c1c([C@H]3CC[C@@H]3c3nccc4c3[nH]c3ccccc34)nccc12 | > 40 µM | Activity (HEK293 [4]): 29%
1 to 18 µM | – | c1ccc2c(c1)[nH]c1c(N3CCCCC3)nccc12 | – | –
1 to 18 µM | – | c1ccc2c(c1)[nH]c1c(N3CCC(N4CCCC4)CC3)nccc12 | – | –
– | 14 µM | OCC(O)c1nccc2c1[nH]c1ccccc12 (stereo not drawn) | > 40 µM | Activity (HEK293 [4]): 37%
1 to 18 µM | – | c1ccc2c(c1)[nH]c1c(N3CCC(N4CCCCC4)CC3)nccc12 | – | –
1 to 18 µM | – | CCN(CC)CCCC(C)Nc1nccc2c1[nH]c1ccccc12 (stereo not drawn) | – | –
1 to 18 µM | – | OC1CCCN(c2nccc3c2[nH]c2ccccc23)C1 (stereo not drawn) | – | –
– | 10 µM | c1ccc2c(c1)[nH]c1c([C@H]3CC[C@H]3c3nccc4c3[nH]c3ccccc34)nccc12 | 10 µM | –
1 to 18 µM | – | CN1CCN(c2nccc3c2[nH]c2ccccc23)CC1 | – | –
– | 21 µM | CCc1ncc(S(C)(=O)=O)c2c1[nH]c1ccccc12 | > 40 µM | Activity (HEK293 [4]): 17%
– | 12 µM | O=S(=O)(O)CCc1nccc2c1[nH]c1ccccc12 | > 40 µM | Activity (HEK293 [4]): 30%
– | – | CCN(CC)CCCC(C)Nc1ccnc2cc(Cl)ccc12 (stereo not drawn) [CHLOROQUINE] | > 40 µM | Activity (HEK293 [4]): 40%

Structure (SMILES) | IC50 (Plasmodium falciparum [1]) | IC50 (Plasmodium falciparum [3]) | IC50 (HEK293 [2]) | other results
CCc1nccc2c1[nH]c1ccccc12 | – | 18 µM | > 40 µM | Activity (HEK293 [4]): 35%
C[C@H]1[C@H](OC(=O)CCC(=O)O)O[C@@H]2O[C@@]3(C)CC[C@H]4[C@H](C)CC[C@@H]1[C@@]24OO3 [ARTESUNATE] | – | 0.0003 µM | – | –

Source: ChEMBL document CHEMBL4602662, “Orthoscuticellines A-E, β-Carboline Alkaloids from the Bryozoan Orthoscuticella ventricosa Collected in Australia” (J Nat Prod, 2020)
